Data from patent US9603876B2, “Compositions and methods for restoring gastrointestinal microbiota following antibiotic treatment” (New York University, priority 2008, dated 2017).

Key:
Type in all cases: in vivo, C57/B6 mice
[1] = Body composition (fat mass, lean mass, % body fat, bone mineral density) by DEXA in sub-therapeutic antibiotic treated (STAT) mice; conditions: at 6 to 9 weeks, sub-therapeutic dose in drinking water, vs control mice
Description: C57/B6 mice were obtained at weaning (21 days) from Jackson Laboratories (Bar Harbor, Me.). They were weighed and then distributed in cages so that the mean weights of the mice in each cage were equal. The mice were then allowed to adjust to the NYU animal facility. At day 23 of life, the antibiotic-exposure experiment began. Animals were allowed ad libitum access to food and water and maintained with a 12-hour light/dark cycle. The mice were fed standard laboratory chow (Purina Mills International Diet # 5001). These conditions were continued until the time of sacrifice.
Mice were given standard water (pH 6.8) or water containing the following antimicrobial agents (at sub-therapeutic levels) in groups of 5-10 mice per experimental condition.
Body composition (fat mass, lean mass, percent [%] body fat) was determined using dual energy X-ray absorptiometry (DEXA) with a Lunar PIXImus II mouse densitometer (PIXImus, Fitchburg, Wis.) at the time of sacrifice. Each mouse was scanned individually. Data collected from the scan included fat and lean body mass, percent body fat, and bone mineral density.
Since maximal growth of mice in these experiments was during the first 2 weeks after weaning, a group of mice were sacrificed at two weeks, and bone mineral density (BMD) and fat phenotypes assessed. […]

[2] = system: bacterial populations of cecal contents; assay: RAPD-PCR characterization of the microbial population in cecal contents; conditions: DNA from cecal contents; primers 1254, OPL-02, OPL-12
Method: (§1) Approximately 10 mg of fecal or cecal samples were suspended in a solution containing 500 μl of extraction buffer (200 mM Tris (pH 8.0), 200 mM NaCl, 20 mM EDTA), 210 μl of 20% SDS, 500 μl of a mixture of phenol:chloroform (pH 7.9, 24:24), and 500 μl of a slurry of 0.1 mm-diameter zirconia beads. Cells were lysed by mechanical disruption with a bead beater set on high for 2 min at room temperature, followed by extraction with phenol:chloroform (pH 7.9, 24:24), and precipitation with isopropanol. After the sample was suspended in 100 μl of TE buffer, the extraction products were further purified using a modified protocol from the ExtractMaster Fecal DNA extraction kit (Epicentre Technologies, Madison Wis.). Residual protein was precipitated using the Protein Precipitation reagent and inhibitors were removed through an Inhibitor Removal Resin spin column. The final product was suspended in 100 μl of TE buffer.
Characterization of the microbial population in the fecal samples was performed using random amplified polymorphic DNA PCR(RAPD-PCR). […] The gels were stained with ethidium bromide and imaging was analyzed using imaged. […]
The positive control (+) was DNA from P. acnes strain VPI 0389. […] The letters A, B, C over columns C10, P1, and P2, respectively, were analyzed be measuring luminescence (see FIGS. 9A-B). […]

[3] = system: Bacteroidetes and Firmicutes in the cecal microbiota; assay: Phylum-level analysis of cecal bacterial populations by 454 sequencing of 16S rRNA V3 region; conditions: cecal contents, Mann-Whitney U-test
Method: Approximately 10 mg of fecal or cecal samples were suspended in a solution containing 500 μl of extraction buffer (200 mM Tris (pH 8.0), 200 mM NaCl, 20 mM EDTA), 210 μl of 20% SDS, 500 μl of a mixture of phenol:chloroform (pH 7.9, 24:24), and 500 μl of a slurry of 0.1 mm-diameter zirconia beads. Cells were lysed by mechanical disruption with a bead beater set on high for 2 min at room temperature, followed by extraction with phenol:chloroform (pH 7.9, 24:24), and precipitation with isopropanol. […]
Phylum-level analysis of bacterial populations in […] mice. […] Mouse cecal contents were analyzed by 454 pryosequencing (Roche). […] For this experiment, the sequencing run produced 555,233 barcoded sequences with an average read length of 188±2.5 base pairs, an average read/barcode of 5784±676, and a read quality of 35. […] Order-level sequence data were summated to the phylum level and analyzed. […]
In another analysis, the proportion of all of the Eubacteria detected that were represented by the Firmicutes was examined. As shown in FIGS. 13A-B, % body fat measured by densitometry of the control and STAT mice (A) correlates with the ratio of Firmicute/Eubacteria as determined at the family level by 454 sequencing (B). […]

[4] = system: Butyryl CoA transferase (BCoAT)-encoding genes; assay: Butyryl CoA transferase (BCoAT) gene qPCR on cecal specimens; conditions: cecal samples
Method: as §1
To test the effect of colonic microbiota on butyrate metabolism, a PCR assay was performed to detect genes encoding an enzyme, Butyryl CoA transferase (BCoAT), regardless of the taxonomic origin of the gene. The following primers were used: BCoATscrF […] (SEQ ID NO: 11) and BCoATscrR […] (SEQ ID NO: 12). BCoAT plays a central role in butyrate metabolism, which is an important short-chain fatty acid (SCFA) in colonic metabolism and provides energy to colonocytes (FIG. 14). […]

[5] = system: total fecal eubacterial and fungal levels; assay: Total microbial counts in fecal pellets by qPCR (16S rRNA, fungal ITS2)
Method: At approximately weekly intervals, a fresh fecal pellet was collected from each individual mouse and frozen at −80° C. until DNA could be extracted. At the time of sacrifice, a fecal pellet was collected, as well as the cecal contents.
as §1, with “Residual protein was precipitated using the Protein Precipitation reagent and inhibitors were removed through an Inhibitor Removal Resin spin column. The final product was suspended in 100 μl of TE buffer.” left out
Analysis of total microbial counts in STAT Mice. […] This possibility was addressed by examining total fecal eubacterial levels in penicillin-treated and control mice by a standardized quantitative PCR (qPCR) using primers […] […] Total fungal levels were determined by qPCR using primers directed to the conserved ITS2 region in the fungal rrn operon ITS1F […] […]

Compound | more fat mass than controls (normalized mean fat mass) [1] [%] | RAPD-PCR products compared to control mice [2] | Firmicutes and B/F ratio compared to the controls [3] | BCoAT densities compared to controls [4] | number of copies of bacterial or fungal rrn elements vs control [5]
CN(C)[C@@H]1C(O)=C(C(N)=O)C(=O)[C@@]2(O)C(O)=C3C(=O)c4c(O)ccc(Cl)c4[C@@](C)(O)[C@H]3C[C@@H]12 [chlortetracycline, Chlortetracycline] | 8.1±3.4 | – | – | – | –
CN[C@H](CC(C)C)C(=O)N[C@H]1C(=O)N[C@@H](CC(N)=O)C(=O)N[C@H]2C(=O)N[C@H]3C(=O)N[C@H](C(=O)N[C@H](C(=O)O)c4cc(O)cc(O)c4-c4cc3ccc4O)[C@H](O)c3ccc(c(Cl)c3)Oc3cc2cc(c3O[C@@H]2O[C@H](CO)[C@@H](O)[C@H](O)[C@H]2O[C@H]2C[C@](C)(N)[C@H](O)[C@H](C)O2)Oc2ccc(cc2Cl)[C@H]1O [vancomycin, Vancomycin] | – | varying sets of bands | statistically significant | – | –
Penicillin | 22.9±8.1 | clear differences | – | increase | no significant difference
